Columns and labels:
Type in all cases: cell-based
hybridoma cell line H = experiment: Harvest antibody titre, hybridoma cell line H; details: SFM, 0.50 mM butyrate, control 62
Experimental: (§1) Hybridoma cells were grown in suspension culture in either serum-free medium (see Example 1) or in DMEM supplemented with 10% (v/v), heat inactivated foetal calf serum. Cells were cultured in either roller bottles or in shake-flasks, as in Example 1. Sodium butyrate was added to cultures immediately after inoculation.

hybridoma cell line G = experiment: Harvest antibody titre, hybridoma cell line G; details: SFM, control 10
Experimental: as §1

[1] = tested on: CBMG human growth hormone producing cells; experiment: Production of recombinant human growth hormone by CBMG cells (immunoradiometric assay); details: serum-free maintenance medium, control 1.0
Experimental: The molecular biology of adherent CBMG human growth hormone producing cells has been described (G. N. Pavlakis et al PNAS (USA) Vol. 80 pp 397-401 (1983)).
CBMG cells were inoculated into tissue culture flasks at a density of 0.7×10^5 cells/cm^2 in Dulbeccos Modified Eagles Minimum (DMEM) supplemented with 10% foetal calf serum.
After the cells in culture had grown to confluency, the DMEM serum supplemented medium was replaced by serum-free DMEM maintenance medium. Sodium butyrate was added at 1 mM and 5 mM after transferring the cells from serum supplemented medium to maintenance medium. Levels of human growth hormone in the culture supernatant were measured after 48 hours by immunoradiometric assay.

Hybridoma cells = experiment: Effect of sodium butyrate on a variety of hybridoma cell lines (summary statement); details: butyrate added immediately after inoculation
Experimental: as §1

[2] = tested on: IgM secreting mouse hybridoma cell line NB1/19; experiment: Effect of sodium butyrate on hybridoma cell growth and antibody production, serum-free medium, shake flasks (ELISA)
Experimental: The IgM secreting mouse hybridoma cell line NB1/19 was grown in suspension culture in Dulbeccos Modified Eagles Minimum (DMEM) serum-free medium containing albumin, insulin, transferrin, gentamycin and other additives as required to cultivate cells in suspension culture. The NB1/19 cell line produces a mouse monoclonal antibody having specificity for an antigenic determinant of human B-type blood cells. The preparation of this call line is described in detail in the specification of British Patent GB 2097425B. It will be appreciated, however, that other hybridoma cell lines may be used in place of this particular cell line as appropriate in this and other examples.
The cells were grown to a viable cell density of 1.0-1.5×10^6 cells/ml. Viable cell density was determined by counting the number of cells which exclude trypan blue, a staining agent. A sample of the suspension culture was diluted in a serum-free medium to a density of about 1.3×10^5 cells/ml. Aliquots of 50 ml in volume were dispensed into shake flasks and sodium butyrate added at concentrations of 0.1 mM, 0.3 mM, 0.5 mM and 1.0 mM.
The shake flasks were gassed with 5% CO2-95% air, and sealed and incubated with shaking at 37° C. for up to 207 hours. (Table 1). Samples ([…]) were removed from the culture by pipette. 100 μl was used to determine viable cell count and the reminder centrifuged at 300×g for five minutes. Supernatants were stored at −20° C. prior to antibody determination by enzyme linked immunosorbent assay (ELISA).

hybridoma cell line A = experiment: Harvest antibody titre, hybridoma cell line A; details: SFM, control 28
Experimental: as §1

hybridoma cell line J = experiment: Harvest antibody titre, hybridoma cell line J
Experimental: as §1

hybridoma cell line E = experiment: Harvest antibody titre, hybridoma cell line E; details: SFM, control 46
Experimental: as §1

CCCC(=O)[O-].[Na+] [sodium butyrate]
HARVEST ANTIBODY TITER (hybridoma cell line H): 109 mg/L
HARVEST ANTIBODY TITER (hybridoma cell line G; 0.25 mM butyrate): 11 mg/L
HARVEST ANTIBODY TITER (hybridoma cell line G; 0.50 mM butyrate): 13 mg/L
Concentration of hGH in supernatant ([1]; 1 mM sodium butyrate): 1.1 arbitrary units/48 hours
Concentration of hGH in supernatant ([1]; 5 mM sodium butyrate): 2.3 arbitrary units/48 hours
amount of antibody produced per cell (Hybridoma cells): increased the amount of antibody produced per cell
Average specific rate of antibody production ([2]; 0.1 mM sodium butyrate): 26 μg/10^6 cells/day
antibody concentration ([2]; 0.1 mM sodium butyrate, 41 hours): 34 µg/mL
antibody concentration ([2]; 0.1 mM sodium butyrate, 87 hours): 90 µg/mL
antibody concentration ([2]; 0.1 mM sodium butyrate, 137 hours): 128 µg/mL
Average specific rate of antibody production ([2]; 0.3 mM sodium butyrate): 26 μg/10^6 cells/day
antibody concentration ([2]; 0.3 mM sodium butyrate, 41 hours): 41 µg/mL
antibody concentration ([2]; 0.3 mM sodium butyrate, 87 hours): 114 µg/mL
antibody concentration ([2]; 0.3 mM sodium butyrate, 137 hours): 147 µg/mL
Average specific rate of antibody production ([2]; 0.5 mM sodium butyrate): 31 μg/10^6 cells/day
antibody concentration ([2]; 0.5 mM sodium butyrate, 41 hours): 50 µg/mL
antibody concentration ([2]; 0.5 mM sodium butyrate, 87 hours): 173 µg/mL
antibody concentration ([2]; 0.5 mM sodium butyrate, 137 hours): 173 µg/mL
Average specific rate of antibody production ([2]; 1.0 mM sodium butyrate): 52 μg/10^6 cells/day
antibody concentration ([2]; 1.0 mM sodium butyrate, 41 hours): 39 µg/mL
antibody concentration ([2]; 1.0 mM sodium butyrate, 137 hours): 180 µg/mL
antibody concentration ([2]; 1.0 mM sodium butyrate, 207 hours): 256 µg/mL
HARVEST ANTIBODY TITER (hybridoma cell line A; 0.35 mM butyrate): 35 mg/L
HARVEST ANTIBODY TITER (hybridoma cell line A; 0.50 mM butyrate): 36 mg/L
HARVEST ANTIBODY TITER (hybridoma cell line J; DMEM + 10% FCS, 0.50 mM butyrate, control 32): 54 mg/L
HARVEST ANTIBODY TITER (hybridoma cell line J; DMEM + 10% FCS, 0.75 mM butyrate, control 32): 55 mg/L
HARVEST ANTIBODY TITER (hybridoma cell line J; SFM, 0.50 mM butyrate, control 37): 72 mg/L
HARVEST ANTIBODY TITER (hybridoma cell line J; SFM, 1.00 mM butyrate, control 37): 102 mg/L
HARVEST ANTIBODY TITER (hybridoma cell line E; 0.35 mM butyrate): 56 mg/L
HARVEST ANTIBODY TITER (hybridoma cell line E; 0.50 mM butyrate): 86 mg/L

Source: US6660501B2, “Production of proteins by cell culture” (Lonza Group, AG, priority 1986, dated 2003)
